# In US6486199B1, “Spiro and dispiro 1,2,4-trioxolane antimalarials” (Medicines for Malaria Venture MMV International Centre …, priority 2001, dated 2002):
# Marks after values point to notes of the source that are not given here.
# Columns and labels:
# [1] = tested on: chloroquine-sensitive NF54 strain of P. falciparum; test: in vitro screen against chloroquine-sensitive NF54 strain of P. falciparum; assay type: cell-based; settings: in vitro, NF54 strain
# [2] = differential scanning calorimetry (DSC), thermal stability; assay type: physicochemical; settings: thermal decomposition
# [3] = tested on: chloroquine-resistant K1 strain of P. falciparum; test: in vitro screen against chloroquine-resistant K1 strain of P. falciparum; assay type: cell-based; settings: in vitro; for in vitro potency: strains not distinguished
# [4] = tested on: ANKA strain of P. Berghei; test: single dose STI in vivo screen in infected Moro SPF mice; settings: for Activity (%) po / Activity (%) sc: percent reduction in parasitemia day 3 post-infection; for in vivo activity: 10 mg/kg po/sc data of Table 2; for antimalarial activity, overall assessment: overall judgement of in vitro and in vivo data of Table 2
# Experimental: In the single dose STI in vivo screen, Moro SPF mice infected with the ANKA strain of P. Berghei (groups of three mice) were treated on day one post-infection with trioxolanes dissolved or suspended in 3% ethanol and 7% Tween 80. […] Antimalarial activity was measured by percent redution in parasitemia on day three post-infection and survival times compared to an untreated control group. Survival to day 30 post-infection is considered to be a cure.
# P. berghei [5] = test: 1-day Peters test against P. berghei in vivo; settings: for oral activity based on po ED50/ED90 values: ranking among trioxolanes and controls
# P. berghei [6] = test: 4-day Peters test against P. berghei in vivo; settings: 4 day
# [7] = tested on: 21-day-old schistosomules of Schistosoma mansoni; test: effect on 21-day-old schistosomules in mice; assay type: in vivo; settings: single 200 mg/kg per os; for FWR (%): female worm reduction rate; for Mean female worm burden: mean ± standard deviation; for TWR (%): total worm reduction rate
# Experimental: […] Each group was treated per os with OZ compounds at a single dose of 200 mg/kg. Untreated mice served as the control. All groups were killed 4 weeks after treatment and the liver and intestine were removed and separated. The liver and intestine were compressed and alive male and female worms could be seen and counted. The effect of the compounds was evaluated by mean total and female worm burden.
# [8] = tested on: adult schistosomes (49-day-old) of Schistosoma mansoni; test: effect on adult schistosomes (49-day-old) in mice; assay type: in vivo; settings: single 400 mg/kg per os; for TWR (%): total worm reduction rate; for Mean total worm burden: x ± SD
# Experimental: Mice were infected with 100 Schistosoma mansoni cercariae […]. Each group was treated per os with OZ compounds at a single dose of 400 mg/kg. Untreated mice served as the control. All groups were killed 4 weeks after treatment and the liver and intestine were removed and separated. The liver and intestine were compressed and alive male and female worms could be seen and counted.
compound,measurement,setting,value
"O=C(OCCC1CCC2(CC1)OOC1(O2)C2CC3CC(C2)CC1C3)c1ccc([N+](=O)[O-])cc1 (centres unmarked) [OZ88, Adamantane-2-spiro-3′-8′-[2′-(4′-nitrobenzoyloxy)ethyl]-1′,2′,4′-trioxaspiro[4.5]decane]",IC50 (ng/ml) NF54,[1],/4.2 ng/ml
same,Tm dec. (° C.),[2],158.9 °C
"CC(=O)N1CCC2(CC1)OOC1(O2)C2CC3CC(C2)CC1C3 (centres unmarked) [OZ49, Adamantane-2-spiro-3′-8′-acetyl-1′,2′,4′-trioxa-8′-azaspiro[4.5]decane]","in vitro potency, fold less potent than the analog",[3],2 fold
same,Tm dec. (° C.),[2],155.7 °C
"CCO[C@H]1O[C@@H]2O[C@@]3(C)CC[C@H]4[C@H](C)CC[C@@H]([C@H]1C)[C@@]24OO3 [Arteether, arteether, reference compound]",IC50 (ng/ml) NF54,[1],0.54 ng/mL
same,Activity (%) po,[4]; single 10 mg/kg po,98%
same,Activity (%) sc,[4]; single 10 mg/kg sc,100%
same,Activity (%) po,[4]; single 100 mg/kg po,99.98%
same,Activity (%) sc,[4]; single 100 mg/kg sc,100%
same,Survival (days) po,[4]; single 10 mg/kg po,8 days
same,Survival (days) sc,[4]; single 10 mg/kg sc,9.7 days
same,Survival (days) po,"[4]; single 100 mg/kg po, survival to day 30 = cure",12 days
same,Survival (days) sc,"[4]; single 100 mg/kg sc, survival to day 30 = cure",26.3 days
same,P. berghei (1 day) ED50 po,P. berghei [5],2.4 mg/kg
same,P. berghei (1 day) ED90 po,P. berghei [5],6.8 mg/kg
"O=S(=O)(c1ccc(F)cc1)N1CCC2(CC1)OOC1(O2)C2CC3CC(C2)CC1C3 (centres unmarked) [OZ86, Adamantane-2-spiro-3′-8′-(4′-fluorobenzenesulfonyl)-1′,2′,4′-trioxa-8′-azaspiro[4.5]decane]",IC50 (ng/ml) NF54,[1],/2.3 ng/ml
same,Tm dec. (° C.),[2],153.0 °C
"O=C(c1ccccc1)N1CCC2(CC1)OOC1(O2)C2CC3CC(C2)CC1C3 (centres unmarked) [OZ24, Adamantane-2-spiro-3′-8′-benzoyl-1′,2′,4′-trioxa-8′-azaspiro[4.5]decane]",P. berghei (1 day) ED50 po,P. berghei [5],3.9 mg/kg
same,P. berghei (1 day) ED90 po,P. berghei [5],9.0 mg/kg
same,P. berghei (1 day) ED90 sc,P. berghei [5],NA/2.1 mg/kg
same,P. berghei (4 day) ED50 po,P. berghei [6],<10/>10 mg/kg
same,P. berghei (4 day) ED90 po,P. berghei [6],<10/>10 mg/kg
same,Tm dec. (° C.),[2],154.9 °C
"Adamantane-2-spiro-3′-1′,2′,4′-trioxaspiro[4.5]decan-8′-one pyridinioacetylhydrazone chloride [OZ55]",in vitro potency,[3],quite potent
same,in vivo activity,[4],minimal
same,Activity (%) po,[4]; single 10 mg/kg po,45%
same,Activity (%) sc,[4]; single 10 mg/kg sc,97%
same,Survival (days) po,[4]; single 10 mg/kg po,6.0 days
same,Survival (days) sc,[4]; single 10 mg/kg sc,7.3 days
"CCS(=O)(=O)N1CCC2(CC1)OOC1(O2)C2CC3CC(C2)CC1C3 (centres unmarked) [OZ79, Adamantane-2-spiro-3′-8′-ethanesulfonyl-1′,2′,4′-trioxa-8′-azaspiro[4.5]decane]",in vitro potency,[3],very potent
same,in vivo activity,[4],good
same,Tm dec. (° C.),[2],153.6 °C
"O=C(CCl)N1CCC2(CC1)OOC1(O2)C2CC3CC(C2)CC1C3 (centres unmarked) [OZ87, Adamantane-2-spiro-3′-8′-chloroacetyl-1′,2′,4′-trioxa-8′-azaspiro[4.5]decane]",IC50 (ng/ml) NF54,[1],/4.5 ng/ml
same,"antimalarial activity, overall assessment",[4],much less active
same,Tm dec. (° C.),[2],149.7 °C
"O=C1CC2CC3(CC2C1)OOC1(O3)C2CC3CC(C2)CC1C3 (stereo not drawn) [OZ12, Adamantane-2-spiro-3′-1′,2′,4′-trioxolane-5′-spiro-3″-7″-oxo-cis-bicyclo[3.3.0]octane]",P. berghei (4 day) ED50 po,P. berghei [6],6.8 mg/kg
same,P. berghei (4 day) ED90 po,P. berghei [6],10.5 mg/kg
same,P. berghei (4 day) ED50 sc,P. berghei [6],0.8 mg/kg
same,P. berghei (4 day) ED90 sc,P. berghei [6],1.4 mg/kg
same,Tm dec. (° C.),[2],149.8 °C
"CON=C1CCC2(CC1)OOC1(O2)C2CC3CC(C2)CC1C3 (centres unmarked) [OZ15, Adamantane-2-spiro-3′-8′-methoxyimino-1′,2′,4′-trioxaspiro[4.5]decane]",P. berghei (1 day) ED50 po,P. berghei [5],3.1 mg/kg
same,P. berghei (1 day) ED90 po,P. berghei [5],5.9 mg/kg
same,P. berghei (1 day) ED50 sc,P. berghei [5],0.7 mg/kg
same,P. berghei (1 day) ED90 sc,P. berghei [5],2.6 mg/kg
same,P. berghei (4 day) ED50 po,P. berghei [6],2.9 mg/kg
same,P. berghei (4 day) ED90 po,P. berghei [6],6.3 mg/kg
same,P. berghei (4 day) ED50 sc,P. berghei [6],0.7 mg/kg
same,P. berghei (4 day) ED90 sc,P. berghei [6],1.1 mg/kg
same,FWR (%),[7],70%
same,Mean female worm burden,[7],3.8 ± 2.4^b
same,TWR (%),[7],63%
same,Percentage of dead worm,[8],10 (21/210)
same,Total dead worm,[8],21
same,TWR (%),[8],0%
same,Mean total worm burden,[8],37.8 ± 20.6
same,Tm dec. (° C.),[2],157.8 °C
"CC(C)(C)C1CCC2(CC1)OOC1(O2)C2CC3CC(C2)CC1C3 (centres unmarked) [OZ18, Adamantane-2-spiro-3′-8′-t-butyl-1′,2′,4′-trioxaspiro[4.5]decane]","antimalarial activity, overall assessment",[4],completely inactive
same,Activity (%) po,[4]; single 10 mg/kg po,0/0%
same,Activity (%) sc,[4]; single 10 mg/kg sc,0/0%
same,FWR (%),[7],9%
same,Mean female worm burden,[7],11.4 ± 2.7^a
same,TWR (%),[7],12%
same,Percentage of dead worm,[8],0
same,Total dead worm,[8],0
same,TWR (%),[8],0.6%
same,Mean total worm burden,[8],35.6 ± 7.2^a
same,Tm dec. (° C.),[2],166.5 °C
"c1ccc2c(c1)COC1(CCC3(CC1)OOC1(O3)C3CC4CC(C3)CC1C4)OC2 (centres unmarked) [OZ31, Adamantane-2-spiro-3′-11′,12′-benzo-1′,2′,4′, 9′,14′-pentaoxadispiro[4.2.6.2]hexadecane]",Activity (%) po,[4]; single 10 mg/kg po,99.95/99.95%
same,Activity (%) sc,[4]; single 10 mg/kg sc,99.95/99.95%
same,P. berghei (1 day) ED50 po,P. berghei [5],1.6 mg/kg
same,P. berghei (1 day) ED90 po,P. berghei [5],3.9 mg/kg
same,P. berghei (1 day) ED50 sc,P. berghei [5],1.1 mg/kg
same,P. berghei (1 day) ED90 sc,P. berghei [5],2.4 mg/kg
same,Tm dec. (° C.),[2],161.1 °C
"O=C(CO)N1CCC2(CC1)OOC1(O2)C2CC3CC(C2)CC1C3 (centres unmarked) [OZ83, Adamantane-2-spiro-3′-8′-hydroxyacetyl-1′,2′,4′-trioxa-8′-azaspiro[4.5]decane]",IC50 (ng/ml) NF54,[1],/1.0 ng/ml
same,"antimalarial activity, overall assessment",[4],very active
same,Tm dec. (° C.),[2],163.6 °C
"Clc1ccc(C2(c3ccc(Cl)cc3)OOC3(O2)C2CC4CC(C2)CC3C4)cc1 (centres unmarked) [OZ43, Adamantane-2-spiro-3′-5′, 5′-bis(4′-chlorophenyl)-1′,2′,4′-trioxolane]",P. berghei (1 day) ED50 po,P. berghei [5],2.1 mg/kg
same,P. berghei (1 day) ED90 po,P. berghei [5],4.0 mg/kg
same,oral activity based on po ED50/ED90 values,P. berghei [5],only slightly less orally active than OZ11
same,Percentage of dead worm,[8],0
same,Total dead worm,[8],0
same,TWR (%),[8],1.1%
same,Mean total worm burden,[8],35.4 ± 15.8^a
same,Tm dec. (° C.),[2],155.8 °C
"c1ccc(CON=C2CCC3(CC2)OOC2(O3)C3CC4CC(C3)CC2C4)cc1 (centres unmarked) [OZ19, Adamantane-2-spiro-3′-8′-benzyloxyimino-1′,2′,4′-trioxaspiro[4.5]decane]","in vitro potency, fold less potent than the analog",[3],~2 fold
same,P. berghei (1 day) ED50 po,P. berghei [5],3.4 mg/kg
same,P. berghei (1 day) ED90 po,P. berghei [5],9.4 mg/kg
same,P. berghei (1 day) ED50 sc,P. berghei [5],1.8 mg/kg
same,P. berghei (1 day) ED90 sc,P. berghei [5],3.6 mg/kg
same,P. berghei (4 day) ED50 po,P. berghei [6],<10/>10 mg/kg
same,P. berghei (4 day) ED90 po,P. berghei [6],<10/>10 mg/kg
same,Tm dec. (° C.),[2],157.8 °C
"CC(=O)OCC(=O)N1CCC2(CC1)OOC1(O2)C2CC3CC(C2)CC1C3 (centres unmarked) [OZ82, Adamantane-2-spiro-3′-8′-acetoxyacetyl-1′,2′,4′-trioxa-8′-azaspiro[4.5]decane]",IC50 (ng/ml) NF54,[1],/1.3 ng/ml
same,"antimalarial activity, overall assessment",[4],very active
same,Tm dec. (° C.),[2],153.7 °C
"OCCC1CCC2(CC1)OOC1(O2)C2CC3CC(C2)CC1C3 (centres unmarked) [OZ89, Adamantane-2-spiro-3′-8′-(2′-hydroxyethyl)-1′,2′,4′-trioxaspiro[4.5]decane]",IC50 (ng/ml) NF54,[1],/1.0 ng/ml
same,"antimalarial activity, overall assessment",[4],quite active
same,Tm dec. (° C.),[2],154.7 °C
"CC1(O)CCC2(CC1)OOC1(O2)C2CC3CC(C2)CC1C3 (centres unmarked) [OZ90, Adamantane-2-spiro-3′-8′-hydroxy-8′-methyl-1′,2′,4′-trioxaspiro[4.5]decane]",IC50 (ng/ml) NF54,[1],/1.1 ng/ml
same,"antimalarial activity, overall assessment",[4],quite active
same,Tm dec. (° C.),[2],153.2 °C
"CCCC1CCC2(CC1)OOC1(O2)C2CC3CC(C2)CC1C3 (centres unmarked) [OZ25, Adamantane-2-spiro-3′-8′-propyl-1′,2′,4′-trioxaspiro[4.5]decane]","antimalarial activity, overall assessment",[4],excellent activity
same,P. berghei (1 day) ED50 po,P. berghei [5],1.9 mg/kg
same,P. berghei (1 day) ED90 po,P. berghei [5],3.1 mg/kg
same,P. berghei (1 day) ED50 sc,P. berghei [5],1.7 mg/kg
same,P. berghei (1 day) ED90 sc,P. berghei [5],3.0 mg/kg
same,oral activity based on po ED50/ED90 values,P. berghei [5],only slightly less orally active than OZ11
same,P. berghei (4 day) ED50 po,P. berghei [6],1.2 mg/kg
same,P. berghei (4 day) ED90 po,P. berghei [6],3.7 mg/kg
same,P. berghei (4 day) ED50 sc,P. berghei [6],2.2 mg/kg
same,P. berghei (4 day) ED90 sc,P. berghei [6],3.7 mg/kg
same,Tm dec. (° C.),[2],167.7 °C
